The term mortality denotes the percentage killed.

What all share (format): in vivo
Experiment [1] relates to cabbage moth (Plutella xylostella). The experiment in a line: Test Example 1: cabbage foliar spray, cabbage moth mortality. Particulars: 120 h, 20 mL sprayed onto cabbage, second instar larvae, 25° C., after 5 days. How it is done: (§1) A formulation of the compound of the present invention that was prepared according to Formulation Example 5 was diluted with water so that the active ingredient concentration was set to 500 ppm to prepare a testing agent solution.
Twenty (20) mL of the above-mentioned testing medicinal solution was sprayed onto a cabbage (Brassicae oleracea) in the third to fourth leaf stage. After the testing medicinal solution was dried, the aerial part of the plant was cut, and then was installed in a polyethylene cup (volume 100 mL) together with five heads of cabbage moth (Plutella xylostella) at the second instar larval stages. The cup was held at 25° C. and after 5 days, the number of surviving insects was counted and the mortality was calculated according to the following equation. Mortality (%)=(Number of dead larvae/Number of tested larvae)×100

Experiment [2] deals with rice planthopper (Nilaparvata lugens). The experiment in a line: Test Example 4: rice seedling spray, rice planthopper controlling value. Particulars: 500 ppm, 10 mL sprayed on rice seedling; three to four instar larvae; 25° C.; after 6 days. How it is done:
(§2) A formulation of the compound of the present invention that was prepared according to Formulation Example 5 was diluted with water so that the active ingredient concentration was set to 500 ppm to prepare a testing agent solution. Rice seedling (on the developmental stage of the second true leaf) was planted in a polyethylene cup, and the above-mentioned test solutions 10 mL were sprayed. After the test solution was air-dried, twenty (20) heads of three to four instar larvae of rice planthopper (Nilaparvata lugens) were released and the plants were held in a greenhouse at 25° C. After 6 days, the number of the surviving insects that were parasitic on the leaves of the rice was examined and the controlling value was calculated by the following equation. Controlling value (%)={1−(Cb×Tai)/(Cai×Tb)}×100 wherein the symbols in the formula represent the following descriptions. Cb: Number of the insects before treatment in untreated area; Cai: Number of the surviving parasitic insects at the time of the investigation in untreated area; Tb: Number of the insects before treatment in treated area; Tai: Number of the surviving parasitic insects at the time of the investigation in treated area;

Experiment [3] relates to summer fruit tortrix (Adoxophyes orana). Put plainly: Test Example 3: artificial diet, summer fruit tortrix mortality. Particulars: 168 h, 1 mL on artificial diet SilkMate 2S, first instar larvae, after 7 days. The protocol: as §1
A filter paper having a diameter of 5.5 cm was spread on the bottom of a polyethylene cup having a diameter of 5.5 cm. SilkMate 2S (manufactured by NOSAN CORPORATION), an artificial diet, was sliced to 2 mm in thickness and then placed on the filter paper. Then, 1 mL of the test solution (500 ppm) was poured into the polyethylene cup. After the test solution was air-dried, the filter paper having a diameter of 5.5 cm was put on the artificial diet, and 30 first instar larvae of summer fruit tortrix (Adoxophyes orana) were released on the filter paper, and the cup was sealed with a lid. After 7 days, the number of surviving summer fruit tortrix was counted and mortality was calculated according to the following equation. Mortality (%)=(Number of dead larvae/Number of tested larvae)×100

Experiment [4] has as its system tobacco cutworm (Spodoptera litura). Put plainly: Test Example 2: artificial diet, tobacco cutworm mortality. Particulars: 144 h, 2 mL on artificial diet Insecta LF, fourth instar larvae, after 6 days. The protocol:
as §1
The bottom of the polyethylene cup having 5.5 cm diameter was matted with the same size of a filter paper. Insecta LF (manufactured by NOSAN CORPORATION), an artificial diet, was sliced to 6 mm in thickness, cut into half, and then placed on the filter paper. Then, 2 mL of the test solution was poured into the polyethylene cup. After the test solution was air-dried, 5 fourth instar larvae of tobacco cutworm (Spodoptera litura) were released into the polyethylene cup and the cup was sealed with a lid. After 6 days, the number of surviving tobacco cutworm (Spodoptera litura) was counted and the mortality was calculated according to the following equation. Mortality (%)=(Number of dead larvae/Number of tested larvae)×100

Experiment [5] concerns rice planthopper (Nilaparvata lugens). The experiment in a line: Test Example 5: rice seedling plant foot irrigation, rice planthopper controlling value. As to conditions: 500 ppm, 5 mL irrigated into plant foot of rice seedling; larvae released after 7 days; counted after 6 days. How it is done: as §2, with “solutions 5” for “solutions 10”, “were irrigated into” for “were sprayed. After”, “the plant foot, and the plants were held at 25° C. in a greenhouse for 7 days. Twenty” for “the test solution was air-dried, twenty”

For experiment [6], the system named is African malaria mosquito (Anopheles gambiae). Put plainly: Test Example 11: topical application, African malaria mosquito mortality. Particulars: 48 h, 167 ppm in acetone, 0.3 μL topically applied to pronotum of female adults, two days post the topical application, read-out: Mortality of insects. How it is done:
Ten (10) mg of the compound of the present invention was dissolved into 3 mL of acetone. Further the agent solution was diluted with acetone to twenty times to prepare the testing agent solution (the active ingredient concentration 167 ppm). African malaria mosquito (Anopheles gambiae) adults were subjected to an anesthetic treatment with carbon dioxide gas, and then each of 0.3 μL of the above-mentioned testing agent solution was topically applied to a pronotum of a female insect. A test was carried out 10 heads per group, and after the topical application, the insects were transferred to a cup, and fed with 5% sugar solution. At two days post the topical application, the life and death of African malaria mosquito was examined, and the mortality of insects was calculated by the following equation. Mortality of insects (%)=(Number of dead insects)/(Number of tested insects)×100

The subject of experiment [7] is cotton aphid (Aphis gossypii). Put plainly: Test Example 6: cucumber seedling spray, cotton aphid controlling value. As to conditions: 500 ppm, 20 mL sprayed on cucumber seedling; 6 days post the spraying. How it is done: A formulation of the compound of the present invention that was prepared according to Formulation Example 5 was diluted with water so that the active ingredient concentration was set to 500 ppm to prepare a testing agent solution. Cucumber seedling on the developmental stage of the first true leaf) was planted in a plastic cup, and about 30 heads of cotton aphid (Aphis gossypii) were released onto the leaves of the cucumber and allowed to stand for 1 day. The above-mentioned test solutions 20 mL were sprayed into the seedling. At 6 days post the spraying, the number of the surviving insects that were parasitic on the leaves of the cucumber was examined and the controlling value was calculated by the following equation. Controlling value (%)={1−(Cb×Tai)/(Cai×Tb)}×100 wherein the symbols in the formula represent the following descriptions. Cb: Number of the insects before treatment in untreated area; Cai: Number of the surviving parasitic insects at the time of the investigation in untreated area; Tb: Number of the insects before treatment in treated area; Tai: Number of the surviving parasitic insects at the time of the investigation in treated area;

In experiment [8] the test system is cotton aphid (Aphis gossypii). Put plainly: Test Example 7: cucumber root soaking, cotton aphid controlling value. Particulars: 500 ppm, cucumber root soaked in 5 mL; inoculated one day after treatment; 7 days post the inoculation. How it is done: as §1
Soils were washed off from the cucumber seedlings (on the developmental stage of the first true leaf). The root of the cucumber seedlings was soaked in the above-mentioned test solutions 5 mL, and at one day after the treatment, thirty heads of cotton aphid (Aphis gossypii) (all stages of life) were inoculated onto the leaves of the cucumber. At 7 days post the inoculation, the number of the surviving insets that were parasitic on the leaves of the cucumber was examined, and the controlling value was calculated by the following equation. Controlling value (%)={1−(Cb×Tai)/(Cai×Tb)}×100 wherein the symbols in the formula represent the following descriptions.
Cb: Number of the insects before treatment in untreated area;
Cai: Number of the surviving parasitic insects at the time of the investigation in untreated area;
Tb: Number of the insects before treatment in treated area;
Tai: Number of the surviving parasitic insects at the time of the investigation in treated area;

Experiment [9] relates to common house mosquito (Culex pipiens pollens). The experiment in a line: Test Example 10: larvae in treated water, common house mosquito mortality. As to conditions: active ingredient concentration of 3.5 ppm in water, final instar larvae, after 24 hours, read-out: Mortality of insects. The protocol: (§3) A Formulation of the compound of the present invention that was prepared according to Formulation Example 5 was diluted with water so that the active ingredient concentration was set to 500 ppm to prepare a testing agent solution.
The above-mentioned testing agent solution 0.7 mL was added to 100 mL of ion-exchange water (the active ingredient concentration of 3.5 ppm). Twenty (20) heads of the final instar larvae of common house mosquito (Culex pipiens pollens) was released onto the above-mentioned solution. After 24 hours, the life and death of common house mosquito was examined, and the number of died insects was counted and the mortality of insects was calculated by the following equation. Mortality of insects (%)=(Number of dead insects)/(Number of tested insects)×100

In experiment [10] the test system is two spotted spider mites (Tetranychus urticae). The experiment in a line: Test Example 8: kidney bean spray, two spotted spider mite controlling value. As to conditions: 500 ppm, sprayed on kidney beans; female adults; 25° C.; 13 days post the treatment. The protocol:
as §1
Forty (40) heads of female adult of two spotted spider mites (Tetranychus urticae) were released onto kidney beans (immediately after the development of the primary leaf). Next day, the above-mentioned test solutions were sprayed with a spray gun in the dripping amount of the chemical solution. The plants were placed in a thermostatic breeding room (25° C.), and at 13 days post the treatment, the number of the surviving insects was examined, and the controlling value was calculated by the following equation. Controlling value (%)={1−(Number of the surviving female adult insects in treated area}/(Number of the surviving female adult insects in untreated area)×100

Experiment [11] deals with housefly (Musca domestica). The experiment in a line: Test Example 9: filter paper with sucrose bait, housefly mortality. Particulars: 0.7 mL on filter paper, female adults, after 24 hours, read-out: Mortality of insects. The protocol: as §3
The bottom of the polyethylene cup having 5.5 cm diameter was matted with the same size of a filter paper, and 0.7 mL of the above-mentioned testing agent solution was added dropwise to the filter, and 30 mg of sucrose as bait was placed in the cup uniformly. Ten (10) heads of female adult housefly (Musca domestica) were released into the polyethylene cup and the cup was covered with the lid. After 24 hours, the life and death of housefly was examined, and the number of died insects was counted and the mortality of insects was calculated by the following equation. Mortality of insects (%)=(Number of dead insects/Number of tested insects)×100

Turning to `CCc1ncnc(NCCc2ccc(C(F)(F)F)cc2)c1Cl` [compound of the present invention], the mortality at 500 ppm in [1] is at least 80%; in [3], at least 90%; in experiment [4], at least 80%; in experiment [11] it was 100%. Moreover, the Controlling value in experiment [2], in experiment [5], in experiment [7], in experiment [8] and in [10] was at least 90% throughout. Also, in experiment [6], the mortality at 167 ppm is at least 90%. Moreover, in experiment [9], the mortality at 3.5 ppm is at least 90%.

For the origin of these results see US9725418B2, “Pyrimidine compound” (Sumitomo Chemical Company, Limited, priority 2014, dated 2017).
